System: rabbits with acute pulmonary hypertension

SMILES: CCCCC[C@H](O)/C=C/[C@@H]1[C@@H](C/C=C\CCCC(=O)O)[C@H]2CO[C@@H]1C2 [U46619]
- right ventricular systolic pressure (RVSP) after U46619 infusion (anesthetized rabbits, continuous infusion over 60 mins, RVSP increased from baseline 14±2 mmHg): 28-30 mmHg

SMILES: [N]=O [NO, nitric oxide]
- RVSP at one min after breathing NO (electrically generated NO (20, 40 or 80 ppm) produced on inspiration by prototype generator, 50% O2, RVSP 30 mmHg before NO breathing, FIG. 14): 24 mmHg

— patent publication US11007503B2, “Systems and methods for a cooled nitric oxide generator” (The General Hospital Corporation, priority 2017, dated 2021)
